Assay results taken from patent US9448170B2 (priority 2003, dated 2016).
Values joined by “and” are separate entries in the source; they are usually repeats but may differ in a detail not shown here. Equal entries are not always repeated.

What was measured:
[1] = system: Spirulina platensis; assay type: cell-based
[2] = system: Selenastrum capricomutum; assay: Delayed fluorescence Curve / VCurve values with green algae photosynthetic sample; assay type: cell-based; conditions: simazine 25, 50, 100 ppb, dichlorophenol 1, 5, 10 ppm, 0.1 to 50 seconds after excitation; for Curve values variation with an increase in concentration: FIG. 37; for VCurve values variation with an increase in concentration: FIG. 38
Protocol: Meanwhile, if characteristic points are not present in a delayed fluorescence decay curve, the Curve values, determined for the entirety or a predetermined range of the decay curve, may be used as comparison values for carrying out the assay. Here, the Curve value at each measurement point n in a temporal variation of the light amount of delayed fluorescence is determined by: (amount of light emitted from the test measurement solution at measurement point n)−(amount of light emitted from the standard measurement solution at measurement point n).
In such a case, it is effective to use VCurve values, each being standardized by being determined as a ratio of a Curve value, which is a value obtained by determining a difference of the temporal variations of the light amount of delayed fluorescence acquired for the test measurement solution and the standard measurement solution, with respect to a light amount of delayed fluorescence acquired for the test measurement solution or the standard measurement solution (preferably, a light amount of delayed fluorescence acquired for the standard measurement solution), as the comparison values. The evaluation of variations within different time ranges is thereby facilitated. Here, in a temporal variation of the light amount of delayed fluorescence, the VCurve value at each measurement point n is determined as (Curve value at measurement point n)/(amount of light emitted from the standard measurement solution at measurement point n)×100.
FIG. 36 is a diagram of an example of a method of computing the Curve values when no characteristics points exist in a delayed fluorescence decay curve. Here, a delayed fluorescence decay curve of a standard measurement solution using Selenastrum capricomutum, which is a green algae and has been grown by a general method at a light intensity of 50 μmol/m^2/s under a white fluorescence lamp, as the photosynthetic sample is shown. Preparation of the sample is carried out in the same manner as in the case of Spirulina platensis. […] In such a case, assay using the Curve values is effective because assay that makes note of characteristic points cannot be made.
Specifically, graph (a) of FIG. 37 is a graph of the Curve values computed from the measurement results of test measurement solutions exposed to simazine, which is a herbicide, at concentrations of 25, 50, and 100 ppb and the measurement results of the standard measurement solution for a time range of 0.1 seconds to 50 seconds after excitation. Graph (b) is a graph of the Curve values computed from the measurement results of test measurement solutions exposed to dichlorophenol at concentrations of 1, 5, and 10 ppm and the measurement results of the standard measurement solution for a time range of 0.1 seconds to 50 seconds after excitation. […]

Molecule | Curve value variation as the concentration becomes higher [1] | VCP1 value [1] | VCP1 value after the activated carbon adsorption treatment [1] | VCP2 value [1] | VTP2 value [1] | variation of the VCP1 value with respect to concentration [1] | variation of the VCP2 value with respect to concentration [1] | variation of the VTP2 value with respect to concentration [1] | Curve values variation with an increase in concentration [2] | VCurve values variation with an increase in concentration [2]
CN(C)C(=O)Nc1ccc(Cl)c(Cl)c1 [DCMU, DCMU (diuron)] | varies in positive direction at around 1 second after excitation and then varies in the negative direction at around 3 to 5 seconds after excitation | 116.0 and 125.6 and 120.9 | 96.3 | 88.0 and 84.6 | 100.0 and 101.5 | increases | decreases | hardly changes |  | 
[Hg+2] [Hg2+, inorganic mercury] | varies in the positive direction at around 1 to 2 seconds after excitation |  |  |  |  | does not change much with an increase in the inorganic mercury concentration at low inorganic mercury concentration, at high inorganic mercury concentration, the VCP1 value increases | decreases | increases |  | 
CCNc1nc(Cl)nc(NC(C)C)n1 [atrazine] | varies in the positive direction at around 1 second after excitation and then varies in the negative direction at around 3 to 4 seconds after excitation | 106.4 |  | 90.0 | 100.0 | increases | decreases | decreases slightly |  | 
C[n+]1ccc(-c2cc[n+](C)cc2)cc1 [paraquat] | varies in the negative direction at around 1 to 4 seconds after excitation |  |  |  |  | decreases slightly | decrease | decrease |  | 
CCNc1nc(Cl)nc(NCC)n1 [simazine] |  |  |  |  |  |  |  |  | vary in the positive direction near 0.1 seconds after excitation | vary in the positive direction near 0.1 to 0.3 seconds after excitation
dichlorophenol |  |  |  |  |  |  |  |  | vary in the negative direction near 0.2 to 10 seconds after excitation | vary in the negative direction widely over the entire range
